From patent US6368618B1, “Composition and method for enhanced transdermal absorption of nonsteroidal anti-inflammatory drugs” (The University of Georgia Research Foundation, Inc., priority 1999, dated 2002)

Tests used:
Type in all cases: physicochemical
[1] = Melt state of ibuprofen and thymol in aqueous isopropyl alcohol; details: racemic ibuprofen in place of S(+)-ibuprofen, with thymol and aqueous IPA, samples as in Table 3, 25° C.
Description: (10 g total weight). Replicate samples of these mixtures were prepared at 25° C. and were stored at 25, 15, and 4° C. for three months. During storage, the melt states of the composition were examined weekly using an optical microscope. The results are shown in Table 3, where O and S denote systems described as in FIG. 1-A and 1-B, respectively, at the corresponding temperature. […] The lower the SI:T ratio and the higher the alcohol content, the lower the melting range of the solid components in the mixture, as shown by the attainment of the melt state. […] Thus the use of thymol and aqueous isopropyl alcohol in combination allows the preparation of two phase melt systems with the highest possible SI:T ratio and the lowest isopropyl alcohol content at 25° C.

[2] = Melt state of ibuprofen in aqueous isopropyl alcohol (optical microscope); set-up: key: S: solid crystals present (FIG. 1-B); O: no crystals present (FIG. 1-A); details: 25° C.
Excerpt: The total weight of each mixture was 10 g.
FIG. 1-A represents a two phase melt system with homogeneous oil and aqueous phases, and FIG. 1-B represents a system where complete melt is not achieved. […] (FIG. 1-B). […] (FIG. 1-A).

[3] = Melt state of physical mixtures of S(+)-ibuprofen and thymol; details: physical mixtures with thymol
Excerpt: The melt states of the two compounds were then examined weekly for 3 months using an optical microscope.

[4] = Composition of the oil phase of two phase melt systems by GC-MS; details: oil phase of dispersion with 15% isopropyl alcohol, no thymol
Description: The composition of the oil phase formed in the dispersion containing 15% isopropyl alcohol was determined by the gas chromatrography-mass spectrometry (GC-MS) analysis.
After ultracentrifugation at 20,000 rpm for 30 minutes at 25° C. of selected two phase melt systems (Systems I, II, III and IV as shown in Table 3) that had been stored at 25° C. for three months, a portion of the oil phase of these melt systems was removed using a micro-sampling tube and was weighed accurately by a taring method.

Melt state ([2]; racemic ibuprofen in place of S(+)-ibuprofen, samples as in Table 2, even at 25% IPA or higher) | SMILES | Melt state [1] | Melt state ([3]; SI:T ratios 5:5 to 6:4 (w:w), ambient temperature (20-25° C.)) | Melt state ([3]; SI:T ratios outside 5:5 to 6:4 (1:9 to 9:1 tested), 25° C.) | concentration of S(+)-ibuprofen in the oil [4] | Melt state ([2]; 5% S(+)-ibuprofen, 5% IPA, pH 4.0 acetate buffer, 3 months) | Melt state ([2]; 5% S(+)-ibuprofen, 10% IPA, pH 4.0 acetate buffer, 3 months) | Melt state ([2]; 5% S(+)-ibuprofen, 15% IPA, pH 4.0 acetate buffer, 3 months) | Melt state ([2]; 5% S(+)-ibuprofen, 20% IPA, pH 4.0 acetate buffer, 3 months) | Melt state ([2]; isopropyl alcohol 10% or less by weight of total composition) | Melt state ([2]; isopropyl alcohol 15% or higher)
complete melt was never achieved | CC(C)Cc1ccc(C(C)C(=O)O)cc1 (racemic) [racemic ibuprofen, a-methyl-4-(2-methylpropyl) benzene-acetic acid] | complete melt of the solids was never achieved | – | – | – | – | – | – | – | – | –
– | CC(C)Cc1ccc([C@H](C)C(=O)O)cc1 [S(+)-ibuprofen, a-methyl-4-(2-methylpropyl) benzene-acetic acid] | – | spontaneously formed a homogeneous oil | complete melting of the compounds did not occur | 68.4 % (w:w) | S | S | O | O | did not completely melt | completely transformed into an oil
